System: San Carlos virus
Assay: Dimethylphenols against San Carlos virus in tissue culture (human embryonic lung), CPE
Format: cell-based, San Carlos virus (adenovirus)
Conditions: for CPE with TCID50 doses of San Carlos virus: human embryonic lung, 100 TCID50; for anti-viral activity against San Carlos virus: at various concentrations

| Compound | CPE with TCID50 doses of San Carlos virus (10^-6 grams 2X) | CPE with TCID50 doses of San Carlos virus (10^-7 grams 2X) | CPE with TCID50 doses of San Carlos virus (10^-8 grams 2X) | CPE with TCID50 doses of San Carlos virus (10^-9 grams 2X) | CPE with TCID50 doses of San Carlos virus (10^-10 grams 2X) | CPE with TCID50 doses of San Carlos virus (10^-11 grams 2X) | CPE with TCID50 doses of San Carlos virus (10^-12 grams 2X) | CPE with TCID50 doses of San Carlos virus (10^-13 grams 2X) | CPE with TCID50 doses of San Carlos virus (10^-14 grams 2X) | CPE with TCID50 doses of San Carlos virus (10^-15 grams 2X) | anti-viral activity against San Carlos virus |
| --- | --- | --- | --- | --- | --- | --- | --- | --- | --- | --- | --- |
| Cc1cccc(O)c1C [2,3-dimethylphenol] | 3+ (75% of cells infected with selected virus) | 2+ (50% of cells infected with selected virus) | 2+ (50% of cells infected with selected virus) | 1+ (25% of cells infected with selected virus) | 1+ (25% of cells infected with selected virus) | 1+ (25% of cells infected with selected virus) | 2+ (50% of cells infected with selected virus) | 1+ (25% of cells infected with selected virus) | 2+ (50% of cells infected with selected virus) | 2+ (50% of cells infected with selected virus) | exhibit anti-viral activity |
| Cc1ccc(C)c(O)c1 [2,5-dimethylphenol] | 3+ (75% of cells infected with selected virus) | 2+ (50% of cells infected with selected virus) | 1+ (25% of cells infected with selected virus) | ± (less than 10% infected) | 1+ (25% of cells infected with selected virus) | 1+ (25% of cells infected with selected virus) | ± (less than 10% infected) | ± (less than 10% infected) | ± (less than 10% infected) | 2+ (50% of cells infected with selected virus) | exhibit anti-viral activity |
| Cc1cccc(C)c1O [2,6-dimethylphenol] | 2+ (50% of cells infected with selected virus) | 2+ (50% of cells infected with selected virus) | 1+ (25% of cells infected with selected virus) | 2+ (50% of cells infected with selected virus) | 1+ (25% of cells infected with selected virus) | 3+ (75% of cells infected with selected virus) | 2+ (50% of cells infected with selected virus) | 2+ (50% of cells infected with selected virus) | 1+ (25% of cells infected with selected virus) | 1+ (25% of cells infected with selected virus) | exhibit anti-viral activity |
| Cc1ccc(O)cc1C [3,4-dimethylphenol, reference compound] | 2+ (50% of cells infected with selected virus) | 1+ (25% of cells infected with selected virus) | 1+ (25% of cells infected with selected virus) | 1+ (25% of cells infected with selected virus) | 2+ (50% of cells infected with selected virus) | 2+ (50% of cells infected with selected virus) | 1+ (25% of cells infected with selected virus) | 2+ (50% of cells infected with selected virus) | 2+ (50% of cells infected with selected virus) | 1+ (25% of cells infected with selected virus) | – |
